Values joined by “and” are separate entries in the source; they are usually repeats but may differ in a detail not shown here. Identical values can stand only once.
Test system: human acute promyelocytic leukemia cell strain HL-60
Experiment: Differentiation induction of HL-60 cells (NBT-reducing ability); enhancement of the retinoid action of Am80
Assay type: cell-based
Settings: for Differentiation induction ratio (%), Am80 1 nM + Test compound: four days; for Differentiation induction ratio (%), Test compound alone: test compound alone 100 nM
Description: Cells of human acute promyelocytic leukemia cell strain HL-60 were cultured in a CO2 incubator (5% CO2, 37° C.) using the RPMI medium containing 5% FBS. Differentiation inducing action on the HL-60 cells induced by 4-[(5,6,7,8-tetrahydro-5,5,8,8-tetramethyl-2-naphthalenyl)carbamoyl]benzoic acid (Am80) was evaluated on the basis of ability to reduce nitroblue tetrazolium (NBT) determined by observing differentiation from promyelocytic cells into granulocytic cells as an index. The cells that entered into the logarithmic phase and reached a substantially confluent state were centrifuged at 1000 rpm for 5 minutes, and the culture supernatant was removed. The cell pellet was suspended in fresh RPMI medium containing 5% FBS at a density of 8.0×10^4 cells/ml, then the suspension was added with a test compound dissolved in DMSO at an intended concentration, and the cells were cultured for four days and then used for the experiment. The samples were prepared so as to have the same DMSO concentration.
Cell count of the cells after the culture for a predetermined period was determined by a cell counting method using a blood cell counting chamber. The NBT-reducing ability was obtained as follows. NBT was dissolved in phosphate buffered saline (PBS(−)) at a concentration of 0.2%, and the solution was added with an equivalent volume of the RPMI medium containing 5% FBS. The mixture was added with phorbol 12-myristate 13-acetate (tPA) at a concentration of 0.2 μM (about 200 ng) to prepare a reagent solution. The collected cells were centrifuged at 1000 rpm for 5 minutes, the supernatant was removed, and the remained cell pellet was added with the reagent solution. The mixture was incubated on a water bath at 37° C. for 20 minutes, and then NBT-reduced stained positive cells were counted by using the counting chamber to calculate a differentiation induction ratio. The same test was performed with allowing the compounds of the present invention prepared in the aforementioned examples (all were carboxylic acid compounds) to coexist with Am80 to confirm action of the compounds of the present invention for enhancing the retinoid action of Am80. As a compound having a retinoid action enhancing action (positive control), 4-[2,3-(2,5-dimethyl-2,5-hexano)dibenzo[b,f][1,4]thiazepin-11-yl]benzoic acid (HX630, Japanese Patent Unexamined Publication No. 10-59951) was used.

[1] = Am80 1 nM + test compound 1 × 10^−7M
[2] = Am80 1 nM + test compound 1 × 10^−8M
[3] = Am80 1 nM + test compound 1 × 10^−9M
[4] = cultured four days, NBT-positive cells

| Structure (SMILES) | Differentiation induction ratio (%), Am80 1 nM + Test compound [1] [%] | Differentiation induction ratio (%), Am80 1 nM + Test compound [2] [%] | Differentiation induction ratio (%), Am80 1 nM + Test compound [3] [%] | Differentiation induction ratio (%), Test compound alone [4] [%] | Differentiation induction ratio (%), Am80 alone (Am80 alone 1 nM, cultured four days, NBT-positive cells) |
| --- | --- | --- | --- | --- | --- |
| CCN(c1ccc(C(=O)O)cc1)c1cc2c3c(c1)CCCC3CCC2 [Example 3, 4-[N-Ethyl-(5,6,6a,7,8,9-hexahydro-4H-2-phenalenyl)amino]benzoic acid] | 25.8 | 26.4 | 20.5 | 1.5 | – |
| CCN(c1ccc(C(=O)O)cc1)c1cc2c3c(c1)CCCCC3CCCC2 [Example 19, 4-[N-Ethyl-(5,6,7,7a,8,9,10,11-octahydro-4H-2-benzo[ef]heptalenyl)amino]benzoic acid] | 85.4 | 44.6 | 31.8 | 2.2 | – |
| CC1(C)CCC(C)(C)c2cc3c(cc21)Sc1ccccc1N=C3c1ccc(C(=O)O)cc1 [HX630, 4-[2,3-(2,5-dimethyl-2,5-hexano)dibenzo[b,f][1,4]thiazepin-11-yl]benzoic acid, reference compound] | 72.3 | 27.8 | 20.4 | 1.6 | – |
| CC1(C)CCC(C)(C)c2cc(NC(=O)c3ccc(C(=O)O)cc3)ccc21 [Am80, 4-[(5,6,7,8-tetrahydro-5,5,8,8-tetramethyl-2-naphthalenyl)carbamoyl]benzoic acid, reference compound] | – | – | – | – | 16.9% and 15.9% |
| O=C(O)c1ccc(N(CC2CC2)c2cc3c4c(c2)CCCC4CCC3)cc1 [Example 4, 4-[N-Cyclopropylmethyl-(5,6,6a,7,8,9-hexahydro-4H-2-phenalenyl)amino]benzoic acid] | 82.9 | 37.5 | 23.9 | 1.9 | – |
| O=C(O)c1ccc(N(CC2CC2)c2cc3c4c(c2)CCCCC4CCCC3)cc1 [Example 20, 4-[N-Cyclopropylmethyl-(5,6,7,7a,8,9,10,11-octahydro-4H-2-benzo[ef]heptalenyl)amino]benzoic acid] | 89.8 | 54.8 | 35.2 | 1.4 | – |
